Several values for one entry are separate records, joined by “and”; a condition that tells them apart may be missing. Equal entries are not always repeated. Where two headings read alike, the source gives them in different places.
Columns and labels:
[1] = system: A2780 ovarian cancer cells; experiment: MTT reduction assay, 4 h, rapid toxicity, A2780; type: cell-based; settings: 4 h treatment
Protocol: (§1) The compounds were tested between 0.001694 and 33.3333 µM, using a 4-hour-long MTT test to assess rapid toxicity and a 48-hour-long SRB assay to assess the long-term effects of the inhibition of proliferation (cytostasis). The MTT assay assesses the activity of mitochondrial complex I and detects rapid, direct toxicity, as well as indicating apoptosis and necrosis. The SRB assay measures the total protein content that is proportional to cell numbers; therefore, the assay can detect changes in cell numbers and can thus be used as a readout for cell proliferation. The SRB assay was performed after 48 h of treatment (with the exception of L428 cells, which were tested for 96 h due to their slower proliferation rate). In this setting, the SRB assay informs us of long-term changes to cell proliferation. We assessed the maximal inhibition within that concentration range, and descriptive statistics were performed. We performed a one-way ANOVA, followed by the Kruskal–Wallis test, regardless of the normal or non-normal distribution of the data. Due to the large number of significance values, the results of the significance calculations are provided in an Excel spreadsheet at https://figshare.com/s/28d14597d5041f08eb08 (accessed on 6 January 2022), among other primary data of the study. Where possible, nonlinear regression was performed on the curves to determine the IC50 values ((inhibitor) vs. response—variable slope (four parameters) method with Graphpad v8.0.1). […] In Table 5, we added the IC50 values that we determined for a set of 4 active ruthenium half-sandwich complexes we identified previously, to be used in subsequent structure-activity relationship (SAR) analyses.
(§2) A2780 cells were cultured in RMPI 1640 medium, supplemented with 10% fetal calf serum, 2 mM glutamine, and 1% penicillin-streptomycin.
The MTT reduction assay measures the activity of mitochondrial complex I and can be used to detect apoptosis and necrosis. The assay was performed similarly to the method used in [72]. Briefly, cells were plated in 96-well plates the day before the assay. Cells were treated with the compounds for 4 h, then MTT was added at 0.5 mg/mL final concentration and the cells were incubated at 37 °C in a cell incubator. The culture media were removed and the reduced MTT dye was dissolved in dimethyl-sulfoxide (DMSO) and plates were measured in a plate photometer (Thermo Scientific Multiscan GO spectrophotometer, Waltham, MA, USA) at 540 nm. On each plate, wells were designed to contain untreated/vehicle-treated cells. In the calculations, the readings for these wells were considered as 1 and all readings were expressed relative to these values.

[2] = system: A2780 ovarian cancer cells; experiment: SRB assay, 48 h, cytostasis, A2780; type: cell-based; settings: 48 h treatment
Protocol: as §1, §2
(§3) The assay was performed similarly to the method used in [73]. Cells were seeded in 96-well plates the day before the assay. Cells were treated with the compounds for 48 h, with the exception of L428, where 96 h of treatment was applied. Cells were fixed with 10% trichloroacetic acid (TCA). Fixed cells were washed in distilled water 3 times, followed by staining with SRB (0.4 m/V% dissolved in 1% acetic acid) for 10 min. The stained cells were washed in 1% acetic acid 5 times; the acetic acid was removed, and the cells were left to dry. Protein-bound SRB was released by adding 100 µL 10 mM Tris base. Plates were measured in a plate photometer (Thermo Scientific Multiscan GO spectrophotometer, Waltham, MA, USA) at 540 nm. On each plate, wells were designed to contain untreated cells. In calculations, the readings for these wells were considered as 1 and all readings were expressed relative to these values.
(§4) Statistical analysis was performed using the 8.0.1 version of Graphpad Prism. Values were tested for normal distribution, using the d’Agostino and Pearson normality test. When necessary, values were log-normalized or were normalized using the Box-Cox normalization method or using a two-step transformation, as indicated in the figure captions. Nonlinear regression was performed using the built-in “[Inhibitor] vs. Response—Variable slope (four parameters), least-square fit” utility of Graphpad, yielding the IC50 and Hill slope values.

[3] = Determination of the distribution coefficients (logD), n-octanol/PBS; type: physicochemical; settings: n-octanol / PBS pH = 7.40, rt
Protocol: Before starting the experiments, n-octanol was saturated with an aqueous PBS solution (pH = 7.40) and vice versa. A solution of the appropriate complex (approximately 0.2–0.3 mg) in a mixture of 2.50 mL pre-saturated n-octanol and 2.50 mL pre-saturated PBS buffer was made, and the resulting mixture was then vigorously stirred for 3 days at rt. Based on our previous NMR stability experiments, this time is long enough to reach equilibrium among the various ionic complex species. Due to the lipophilic/hydrophilic features of the complexes, those with benzoyl protection could primarily be found in the n-octanol, while the complexes with O-peracetylated and O-deprotected ligands were in the aqueous PBS phase. The corresponding separated solution was centrifuged (ScanSpeed 406G instrument, 4000 RPM for 5 min) and the absorption of the ”stock solution” was determined (VWR UV-1600PC Spectrophotometer, 270–420 nm). Then, 2.00 mL of the stock solution was vigorously stirred with 16.00 mL of pre-saturated n-octanol or PBS solution. After one day had passed, the phases were separated, centrifuged, and the absorption of the solution was measured again. From the absorption difference of the stock solutions, the distribution coefficient (D) was determined using previously described formulae [71].

[4] = system: A2780 ovarian cancer cells; set-up: method as in PMID 34638791; settings: SRB assay, 48 h; data previously published; cited from earlier work
[5] = system: ID8 ovarian cancer cell line; set-up: method as in PMID 34638791; settings: SRB assay, 48 h; data previously published; cited from earlier work
[6] = system: Capan2, a pancreatic adenocarcinoma cell line; set-up: method as in PMID 34638791; settings: SRB assay, 48 h; data previously published; cited from earlier work
[7] = set-up: method as in PMID 34638791; settings: data previously published; cited from earlier work
[8] = system: human primary fibroblasts; set-up: method as in PMID 34638791; settings: SRB assay, 48 h, data previously published, cited from earlier work
[9] = system: ID8 ovarian cancer cell line; experiment: SRB assay, 48 h, cytostasis, ID8; type: cell-based; settings: 48 h treatment
Protocol: as §1
ID8 cells were cultured in a high-glucose DMEM (4.5 g/L glucose) medium, supplemented with 4% fetal calf serum, 2 mM glutamine, 1% penicillin-streptomycin, and 1% ITS supplement (I3146).
as §3, §4

[10] = system: human primary fibroblasts; experiment: SRB assay, 48 h, cytostasis, primary fibroblasts; type: cell-based; settings: MTT 4 h and SRB 48 h
Protocol: The compounds were tested between 0.001694 and 33.3333 µM, using a 4-hour-long MTT test to assess rapid toxicity and a 48-hour-long SRB assay to assess the long-term effects of the inhibition of proliferation (cytostasis). The MTT assay assesses the activity of mitochondrial complex I and detects rapid, direct toxicity, as well as indicating apoptosis and necrosis. The SRB assay measures the total protein content that is proportional to cell numbers; therefore, the assay can detect changes in cell numbers and can thus be used as a readout for cell proliferation. The SRB assay was performed after 48 h of treatment (with the exception of L428 cells, which were tested for 96 h due to their slower proliferation rate). In this setting, the SRB assay informs us of long-term changes to cell proliferation. We assessed the maximal inhibition within that concentration range, and descriptive statistics were performed. We performed a one-way ANOVA, followed by the Kruskal–Wallis test, regardless of the normal or non-normal distribution of the data. […]
The assay was performed similarly to the method used in [73]. […] Plates were measured in a plate photometer (Thermo Scientific Multiscan GO spectrophotometer, Waltham, MA, USA) at 540 nm. […] In calculations, the readings for these wells were considered as 1 and all readings were expressed relative to these values. […]

| Compound | toxicity on A2780 cells in short-term MTT assay (in words) [1] | cytostatic activity on A2780 cells in SRB assay (in words) [2] | A2780 Max. Inh. (%) [4] [%] | IC50 [4] | IC50 [5] [µM] | ID8 Max. Inh. (%) [5] [%] | Capan2 Max. Inh. (%) [6] [%] | IC50 [6] [µM] | LogD [7] | also measured |
| --- | --- | --- | --- | --- | --- | --- | --- | --- | --- | --- |
| Cc1ccc(C(C)C)cc1.F[P-](F)(F)(F)(F)F.O=C(OCC1OC(c2noc(-c3ccccn3)n2)C(OC(=O)c2ccccc2)C(OC(=O)c2ccccc2)C1OC(=O)c1ccccc1)c1ccccc1.[Cl][Ru+] (mixture of isomers) [Ru-1] | neither of them showed considerable activity | neither of them showed considerable activity |  |  |  |  |  |  |  | LogD [3]: 2.79 |
| Cc1ccc(C(C)C)cc1.F[P-](F)(F)(F)(F)F.OCC1OC(c2noc(-c3ccccn3)n2)C(O)C(O)C1O.[Cl][Ru+] (mixture of isomers) [Ru-2] | neither of them showed considerable activity | neither of them showed considerable activity |  |  |  |  |  |  |  | LogD [3]: −0.96 |
| Cc1ccc(C(C)C)cc1.F[P-](F)(F)(F)(F)F.O=C(OCC1OC(c2nnc(-c3ccccn3)o2)C(OC(=O)c2ccccc2)C(OC(=O)c2ccccc2)C1OC(=O)c1ccccc1)c1ccccc1.[Cl][Ru+] (mixture of isomers) [Ru-3] |  |  | 100 | 6.2 µM and 6.19 µM | 5.66 | 100 | 100 | 3.27 | 2.41 |  |
| Cc1ccc(C(C)C)cc1.F[P-](F)(F)(F)(F)F.O=C(OCC1OC(c2nnc(-c3ccccn3)o2)C(OC(=O)c2ccccc2)C(OC(=O)c2ccccc2)C1OC(=O)c1ccccc1)c1ccccc1.[Cl][Ru+] (mixture of isomers) [Ru-4] |  |  | 100 | 4.3 µM and 4.27 µM | 7.94 | 100 | 100 | 3.82 | 2.44 |  |
| Cc1ccc(C(C)C)cc1.F[P-](F)(F)(F)(F)F.O=C(OC1COC(c2nnc(-c3ccccn3)o2)C(OC(=O)c2ccccc2)C1OC(=O)c1ccccc1)c1ccccc1.[Cl][Ru+] (mixture of isomers) [Ru-5] |  |  | 100 | 8.5 µM and 8.54 µM | 6.76 | 100 | 100 | 4.97 | 2.04 | Fibroblast Max. Inh. (%) ([8]; ND = not detected): 80%; IC50 ([8]; read-out: Fibroblast IC50): 24.6 µM |
| Cc1ccc(C(C)C)cc1.F[P-](F)(F)(F)(F)F.O=C(OCC1OC(n2cc(-c3ccccn3)nn2)C(OC(=O)c2ccccc2)C(OC(=O)c2ccccc2)C1OC(=O)c1ccccc1)c1ccccc1.[Cl][Ru+] (mixture of isomers) [Ru-6] |  |  | 100 | 0.87 µM | 2.15 | 100 | 100 | 2.18 | 2.85 |  |
| OC[C@H]1O[C@@H](c2noc(-c3ccccn3)n2)[C@H](O)[C@@H](O)[C@@H]1O [Complex L-2, 3-(β-D-Glucopyranosyl)-5-(pyridin-2-yl)-1,2,4-oxadiazole] | practically inactive | practically inactive |  |  |  |  |  |  |  |  |
| Cc1c(C)c(C)[c-](C)c1C.Cc1c(C)c(C)[c-](C)c1C.[Cl-].[Cl-].[Cl-].[Cl-].[Ir+3].[Ir+3] [Ir-dimer, dichloro(pentamethylcyclopentadienyl)iridium(III) dimer] |  | inactive |  |  |  |  |  |  |  | cytostatic activity on ID8 cells, SRB assay (in words) [9]: inactive; cytotoxic or cytostatic activity on fibroblasts (in words) [10]: None of the complexes, Ir-1‒Ir-12, or the Ir-dimer exerted cytotoxic or cytostatic activity on fibroblasts |
| dichloro(pentamethylcyclopentadienyl)rhodium(III) dimer [Rh-dimer] |  | inactive |  |  |  |  |  |  |  | cytostatic activity on ID8 cells, SRB assay (in words) [9]: inactive; cytotoxic or cytostatic activity on fibroblasts (in words) [10]: None of the complexes Rh-3‒Rh-6 or the Rh-dimer exerted cytotoxic or cytostatic activity on fibroblasts |
